Results: patent publication US5654315A, “Quinuclidine compounds useful in treating diseases” (Imperial Chemical Industries PLC, priority 1991, dated 1997)

Assays:
Squalene synthase = molecular target: T1, Squalene synthase (Rattus norvegicus, UniProt Q02769); test: Inhibition of squalene synthase (formation of squalene from tritiated farnesyl pyrophosphate, rat liver microsomes); format: biochemical; conditions: rat liver microsomal protein; 20 μM 1-[3H]-farnesyl pyrophosphate; 15 minutes; 37° C.; read-out: IC50 (concentration which results in a 50% inhibition of squalene production)
T1 construct: rat liver microsomal protein; from tissue; host or cells: rat liver microsomes
T1 sequence (Q02769 1-416): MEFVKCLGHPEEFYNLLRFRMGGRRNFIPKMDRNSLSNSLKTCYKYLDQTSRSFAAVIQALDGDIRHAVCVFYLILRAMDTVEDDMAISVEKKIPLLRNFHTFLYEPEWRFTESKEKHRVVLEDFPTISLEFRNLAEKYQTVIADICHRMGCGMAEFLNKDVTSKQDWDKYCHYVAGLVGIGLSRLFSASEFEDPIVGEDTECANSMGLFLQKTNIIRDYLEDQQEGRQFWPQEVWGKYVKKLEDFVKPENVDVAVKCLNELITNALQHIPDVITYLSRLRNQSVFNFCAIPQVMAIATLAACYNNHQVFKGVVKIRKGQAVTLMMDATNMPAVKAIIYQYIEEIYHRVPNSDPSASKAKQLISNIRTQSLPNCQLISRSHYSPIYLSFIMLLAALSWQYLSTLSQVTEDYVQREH
Protocol: (a) Inhibition of Squalene synthase
In this test, the ability of a compound to prevent the formation of squalene from a radioactive substrate (tritiated farnesyl pyrophosphate) is assessed.
The test compound is incubated at a concentration of 25 micromolar in 200 μl of a buffered solution containing potassium phosphate (50 mM), MgCl2 (4.95 mM), KF (9.9 mM), NADPH (0.9 mM) and rat liver microsomal protein (20 μg). Rat liver microsomes are prepared by the method described in published European Patent Application No. 324,421 and stored in liquid nitrogen prior to assay. Assay vials are kept at 37° C. throughout the incubation.
The reaction is started with the addition of the substrate (1-[^3 H]-farnesyl pyrophosphate), final concentration 20 μM, and stopped after 15 minutes reaction time with the addition of 50 μl of 4% KOH. The reaction products are separated from unreacted substrate after application to a C-18 octadecyl 1ccBond column (Analytichem Int product No. 617101). An aqueous fraction is eluted with 250 μl of 0.1M KOH. Squalene is then eluted with 1.0 ml 10% ethyl acetate in hexane and radioactivity determined. The difference in radioactivity in the presence and absence of the test compound is used to determine the level of inhibition. […] The IC50 can then be determined from a plot of percentage inhibition against concentration of test compound.

[1] = tested on: de novo hepatic cholesterol synthesis; test: Acute rat cholesterol synthesis assay (de novo hepatic cholesterol synthesis from 14C-acetate); format: in vivo; conditions: female rats, oral gavage, ip or iv (route not given), 14C-acetate ip 1 hour after dosing
Protocol: (b) Acute rat cholesterol synthesis assay.
This is an acute in vivo test in the rat to measure de novo hepatic cholesterol synthesis from exogenously administered ^14 C-acetate.
Female rats (35-55 g) are housed in reverse lighting conditions (red light from 0200h-1400h) for a period of about 2 weeks prior to test. Animals are allowed free access to chow and drinking water throughout this period. At test, animals should weigh 125-150 g.
Test compounds may be administered by oral gavage, dissolved or suspended in 0.5% polysorbate, or by ip or iv dosing. Control animals receive vehicle alone. After 1 hour the rats are injected ip with 25 μCi [2-^14 C]-acetate (NEN DUPONT. specific activity, 45-60 mCi/mmol NEC-085H, or AMERSHAM specific activity, 50-60 mCi/mmol CFA 14) in a volume of 0.25 ml saline (100 μCi/ml). After a further hour, rats are terminally anaesthetised with halothane and a blood sample obtained from the abdominal vena cava.
1 ml of plasma is lyophilised and then saponified in 2 ml ethanolic KOH (1 part 33% KOH, 9 parts ethanol) at 75° C. for 2 hours. After addition of an equal quantity of water, non-saponifiable lipids are extracted with two 5 ml volumes of hexane. The hexane extracts are evaporated to dryness and the residues dissolved in ethanol to determine cholesterol specific radioactivity. EC50 values can be determined in the standard way.

Compound	IC50 (Squalene synthase) [nM]	ED50 [1] [mg/kg]
c1ccc(-c2ccc(CNC3CN4CCC3CC4)cc2)cc1 (centres unmarked) [Example 5, 3-[(biphenyl-4-ylmethyl)amino]quinuclidine]	140	–
Oc1ccc(-c2ccc(OCC3(O)CN4CCC3CC4)cc2)cc1 (centres unmarked) [Example 17, 3-(4'-hydroxybiphenyl-4-yloxymethyl)quinuclidin-3-ol]	–	11
